Columns and labels:
Format in all cases: cell-based, human
[1] = system: leukemia-derived cell lines; experiment: trypan blue exclusion, cell lines taken together
Method: (§1) In these experiments, integrity of cell membranes following taurolidine treatment was assessed by exclusion of trypan blue and by measuring the release of LDH in MM6, K-562, HL-60, and REH cells. Since BCS contains significant amounts of LDH, these experiments were conducted on cells cultured in AIM-V+0.01% BCS. Four hour treatment of cells was conducted in AIM-V containing 0.01% BCS in order to allow subsequent LDH assay without interference from BCS (which occurs in when normal culture medium, containing 10% BCS, is used). Thus, MM6 cells (5×10^5 cells/ml) were treated with taurolidine for four hours in AIM-V+0.01% BCS, after which an aliquot of the cell suspension was removed for measurement of LDH release. A parallel aliquot of cells was lysed by three cycles of freeze/thaw and the quantity of LDH released was taken to be 100%. Remaining cells were rinsed in HBSS and resuspended in growth medium for measurement of growth rates.
HL-60 cells treated with 50 μl taurolidine. In these samples, LDH present in the culture medium was 8.3±2.3% of that released by completely lysed cells, compared with 2.3±0.8% measured in control cultures. […] After 4 hour treatment, cells were rinsed and returned to growth medium and monitored for viability and growth over the following 3 days. […]

MM6 cells = experiment: growth rate after taurolidine treatment, MM6
Method: FIG. 4A and FIG. 4B are graphs depicting cell viability and growth rates following taurolidine treatment as determined by assay procedures. MM6 cells were treated with taurolidine as described in FIG. 3. After aliquots were collected for the lactate dehydrogenase (LDH) assay, the remainder of the culture was rinsed in Hank's balanced salt solution (HBSS) and resuspended in RPMI+10% BCS without taurolidine. Counts of trypan blue-negative cells represented in FIG. 4A and total cell number represented in FIG. 4B were recorded daily thereafter (with the measurement at Day 1 being made immediately after the four hour taurolidine treatment). […]
FIGS. 5A and 5B depict cell viability and growth rates for MM6 cell line following taurolidine treatment, in terms of % trypan blue negative cells and % cell number, respectively. […] Counts of trypan blue-negative cells (FIG. 5A), and total cell number (FIG. 5B), were recorded daily thereafter (with the measurement at Day 1 being made immediately after the 4 hour taurolidine treatment). […] Doubling times were determined under each condition, and expressed as a percentage of the rate of doubling of untreated cells. […]
In these experiments, integrity of cell membranes following taurolidine treatment was assessed by exclusion of trypan blue and by measuring the release of LDH in MM6, K-562, HL-60, and REH cells. […]

K-562 = experiment: growth rate after taurolidine treatment, K-562
Method: FIGS. 6A and 6B depict cell viability and growth rates for K562 cell line following taurolidine treatment, in terms of % trypan blue negative cells and % cell number, respectively. Cells were treated with various concentrations of taurolidine for 4 hours in AIM-V+0.01% BCS. After aliquots were collected for LDH assay, the remainder of the culture was rinsed in HBSS and resuspended in RPMI+10% BCS without taurolidine. Counts of trypan blue-negative cells (FIG. 6A), and total cell number (FIG. 6B), were recorded daily thereafter (with the measurement at Day 1 being made immediately after the 4 hour taurolidine treatment). Conditions were: no treatment (open circles); 25 μg/ml taurolidine (closed circles); 50 μg/ml taurolidine (open squares); 100 μg/ml taurolidine (closed squares); and vehicle alone (closed triangles). Doubling times were determined under each condition, and expressed as a percentage of the rate of doubling of untreated cells. These values are located to the right of the growth curves in (FIG. 6B). Cells were subcultured when they reached a concentration of 6×10^5 cells/ml. Data are mean±SEM of three experiments.
as §1
HL-60 cells treated with 50 μl taurolidine. In these samples, LDH present in the culture medium was 8.3±2.3% of that released by completely lysed cells, compared with 2.3±0.8% measured in control cultures. […] After 4 hour treatment, cells were rinsed and returned to growth medium and monitored for viability and growth over the following 3 days. Concentrations of taurolidine from 25 μg/ml to 100 μ/ml were used in order to highlight differences in sensitivity of cell lines to taurolidine.
^b Growth rate was measured over three days following treatment.

REH = experiment: TUNEL / propidium iodide flow cytometry, REH
Method: In the second method, DNA fragmentation was detected via TUNEL assay according to the manufacturer's instructions. With this methodology, 2×10^6 cells were fixed with 2% paraformaldehyde, permeabilized with 0.1% Triton X-100/0.1% citrate, incubated at 37° C. with terminal deoxynucleotidyl transferase and FITC-dUTP, rinsed and analyzed by flow cytometry. Enhanced FITC signal indicates apoptosis-specific DNA fragmentation. Gavriali, et al, "Identification of programmed cell death in situ via specific labeling of nuclear DNA fragmentation," J Cell Biol 119:493 (1992). Parallel aliquots of unfixed cells were treated with PI and FITC-conjugated anti-CD14 and analyzed by flow cytometry, in order to identify cells with permeable cell membranes (since PI binds to DNA but is excluded from cells with intact plasma membranes) and also to determine the cell-specificity of the apoptotic signal.
In another study, TUNEL assays were performed on all cell lines 6 hours after cells were initially exposed to taurolidine (cells were treated for 4 hours, rinsed, and then incubated for 2 more hours before TUNEL assay was performed).
. Taurolidine and anisomycin induced apoptosis in MM6, HL-60, and Jurkat cells (Table VIII). MM6 and HL-60 cells were similarly effected, with >80% TUNEL-positive cells after 6 hours. Jurkat cells were less sensitive, with approximately 50% of cells induced to undergo apoptosis after taurolidine treatment. After 6 hours, 73% of anisomycin-treated REH cells were apoptotic, with less than 20% of taurolidine-treated REH cells being TUNEL-positive. However, assay of cells 24 hours after
^a Analysis by flow cytometry after staining cells with propidium
iodide and processing for TUNEL.
Data are percent of total cell-size events, and are expressed as mean ±
Cells were treated for 4 hours with taurolidine (100 μg/ml) or
anisomycin (1 μg/ml), and then assayed at 6 hours.
Data are percent of total cell-sized events, and are expressed as mean ±
anisomycin (1 μg/ml), and then assayed at 24 hours.

Which “trypan blue assay on Day 1” value ([1]; all samples, 25 to 100 μg/ml taurolidine, after 4 h treatment) does the source give for `O=S1(=O)CCN(CN2CCS(=O)(=O)NC2)CN1` [taurolidine, 4,4'-methylenebis(perhydro-1,2,4-thiadiazin 1,1-dioxide)] here?
Its value is “equivalent to control”.

What about the “progressive permeability to trypan blue over following days” value ([1]; leukemia-derived cell lines except K562, taurolidine 50 μg/ml or greater) of the same molecule?
Its value is “permeability to trypan blue”.

What about the “growth rate after return to growth medium” value (MM6 cells; MM6, 25 μg/ml taurolidine for 4 h) of the same molecule?
The value was “growth rates similar to that observed with untreated cells”.

And the “growth after return to growth medium” value (MM6 cells; MM6, 50 μg/ml taurolidine for 4 h)?
The value was “failed to grow”.

What about the activity at 50 µg/mL (K-562; Homo sapiens, K562, 72 h, K-562, 50 μg/ml for 4 h, growth over three days, read-out: growth rate (% of control)) of the same molecule?
Its activity at 50 µg/mL is 52%.

What about the activity at 100 µg/mL (K-562; Homo sapiens, K562, 72 h, K-562, 100 μg/ml for 4 h, growth over three days, read-out: growth rate (% of control)) of the same molecule?
Its activity at 100 µg/mL is 0%.

What about the “sensitivity of cell growth among cell lines” value (K-562; K562) of the same molecule?
The value was “least affected”.

And the “growth after taurolidine treatment” value (K-562; K562, 50 μg/ml or greater)?
The value was “inhibition of growth”.

And the “rate of apoptosis induction versus anisomycin” value (REH)?
Its value is “less rapidly than with anisomycin treatment”.

And the “% TUNEL-positive” value (REH; taurolidine 100 μg/ml or anisomycin 1 μg/ml for 4 h, assayed at 24 hours, mean ± SD)?
Its value is 81.4 ± 4.4%.

Reference: patent US6303596A, “Use of taurolidine for treatment of leukemias” (priority 2000, dated 2001)
